Series [1] is described as follows: Rat plasma half-life assay (LC-MS). It counts as in vitro ADME. Conditions: incubated at 37° C., read-out: Rat Plasma T½ (converted). How it is done:
(§1) B. Human and Rat Plasma Half-Life Assay
(§2) 50 μl, was removed at various times, like at 0, 1, 2, 3, 4, 8, 24, 32, 48, 56, 72 hours, mixed with 5 μL formic acid and 150 μL acetonitrile in a microcentrifuge tube, vertexed, and centrifuged for 10 minutes at 10K rpm. The supernatant was transferred to an injection vial and analyzed by LC-MS. The LC-MS system consisted of an API4000 mass spectrometer with an ESI probe. Positive ion mode and full scan detection were used. HPLC separation was carried out on a Luna 3μ C8 (2), 2×30 mm column with a gradient from 90% A to 90% B in 10 minutes at a flow rate of 0.3 ml/min. Buffer A was 1% formic acid in water and buffer B was 1% formic acid acetonitrile.

A short description of series [2]: Human plasma half-life assay (LC-MS). It counts as in vitro ADME. Conditions: incubated at 37° C., read-out: Human Plasma T½ (converted). How it is done:
as §1, §2

The record followed here is patent US8450266B2 (Ipsen Pharma S.A.S., priority 2008, dated 2013).

Where a SMILES comes first, the peptide text is derived from it. [ ]: non-standard residue; d: D form. The star is where a group is joined. X2 = CCCCCCN1C(=O)CC(*)C1=O; Ac6c = NC1(C(=O)O)CCCCC1; X1 = CCCN1C(=O)CC(*)C1=O Bounds are passed on as bounds.

Regarding `CCCCCCN1C(=O)CC(SC[C@H](NC(=O)[C@H](CCCCN)NC(=O)[C@H](CCC(N)=O)NC(=O)[C@H](C)NC(=O)[C@H](CC(C)C)NC(=O)[C@H](CC(C)C)NC(=O)[C@H](Cc2c[nH]c3ccccc23)NC(=O)[C@H](CC(N)=O)NC(=O)[C@@H](NC(=O)[C@H](Cc2ccccc2)NC(=O)[C@H](CC(=O)O)NC(=O)[C@H](CCC(N)=O)NC(=O)[C@H](CCC(N)=O)NC(=O)[C@H](Cc2c[nH]cn2)NC(=O)[C@@H](NC(=O)[C@H](CCCCN)NC(=O)[C@H](CC(=O)O)NC(=O)[C@H](CCSC)NC(=O)[C@H](C)NC(=O)[C@@H](NC(=O)[C@H](CO)NC(=O)[C@H](Cc2ccc(O)cc2)NC(=O)[C@H](CC(=O)O)NC(=O)[C@H](CO)NC(=O)C2(NC(C)=O)CCCCC2)[C@@H](C)CC)[C@@H](C)CC)C(C)C)C(=O)N[C@@H](CCCCN)C(=O)N[C@@H](CCCCN)C(=O)N[C@@H](CC(N)=O)C(=O)N[C@@H](CC(=O)O)C(=O)N[C@@H](Cc2c[nH]c3ccccc23)C(=O)N[C@@H](CCCCN)C(=O)N[C@@H](Cc2c[nH]cn2)C(=O)N[C@@H](CC(N)=O)C(=O)N[C@H](C(=O)N[C@H](C(=O)N[C@@H](CCC(N)=O)C(=O)O)[C@@H](C)O)[C@@H](C)CC)C1=O` (some centres unmarked) [Example 22, [Ac-A6c^7, Cys(Hsu)^31]hGIP(7-42)-OH] (Ac-[Ac6c]SDYSIAMDKIHQQDFVNWLLAQKC(X2)KKNDWKHNITQ-OH), the values for the half-life at 0.1 mg/ml in series [1] and in series [2] were 300 min and 462 min, respectively.
As for `CCCN1C(=O)CC(SC[C@H](NC(=O)[C@H](CCCCN)NC(=O)[C@H](CCC(N)=O)NC(=O)[C@H](C)NC(=O)[C@H](CC(C)C)NC(=O)[C@H](CC(C)C)NC(=O)[C@H](Cc2c[nH]c3ccccc23)NC(=O)[C@H](CC(N)=O)NC(=O)[C@@H](NC(=O)[C@H](Cc2ccccc2)NC(=O)[C@H](CC(=O)O)NC(=O)[C@H](CCC(N)=O)NC(=O)[C@H](CCC(N)=O)NC(=O)[C@H](Cc2c[nH]cn2)NC(=O)[C@@H](NC(=O)[C@H](CCCCN)NC(=O)[C@H](CC(=O)O)NC(=O)[C@H](CCSC)NC(=O)[C@H](C)NC(=O)[C@@H](NC(=O)[C@H](CO)NC(=O)[C@H](Cc2ccc(O)cc2)NC(=O)[C@H](CC(=O)O)NC(=O)[C@H](CO)NC(=O)C2(NC(=O)[C@H](Cc3ccccc3)NC(C)=O)CCCCC2)[C@@H](C)CC)[C@@H](C)CC)C(C)C)C(N)=O)C1=O` (some centres unmarked) [Example 33, [Ac-Phe^6, A6c^7, Cys(Psu)^31]hGIP(6-31)-NH2], the half-life at 0.1 mg/mL in series [1] is 612 min; in series [2], 816 min.
Regarding `CCCC[C@H](NC(=O)[C@H](C)NC(=O)[C@@H](NC(=O)[C@H](CO)NC(=O)[C@H](Cc1ccc(O)cc1)NC(=O)[C@H](CC(=O)O)NC(=O)[C@H](CO)NC(=O)C1(NC(=O)[C@@H](N)Cc2ccccc2)CCCC1)[C@@H](C)CC)C(=O)N[C@@H](CC(=O)O)C(=O)N[C@@H](CCCCN)C(=O)N[C@H](C(=O)N[C@@H](Cc1c[nH]cn1)C(=O)N[C@@H](CCC(N)=O)C(=O)N[C@@H](CCC(N)=O)C(=O)N[C@@H](CC(=O)O)C(=O)N[C@@H](Cc1ccccc1)C(=O)N[C@H](C(=O)N[C@@H](CC(N)=O)C(=O)N[C@@H](Cc1c[nH]c2ccccc12)C(=O)N[C@@H](CC(C)C)C(=O)N[C@@H](CC(C)C)C(=O)N[C@@H](C)C(=O)N[C@@H](CCC(N)=O)C(=O)N[C@@H](CCCCN)C(N)=O)C(C)C)[C@@H](C)CC` [Example 35, (A5c^7, Nle^14)hGIP(6-30)-NH2] (HELM PEPTIDE1{F.[O=C(C1(N[*:1])CCCC1)[*:2]].S.D.Y.S.I.A.[Nle].D.K.I.H.Q.Q.D.F.V.N.W.L.L.A.Q.K.[am]}$$$$V2.0), the values for the half-life at 0.1 mg/mL in series [1] and in series [2] were 1380 min and 990 min, respectively.
Regarding `CCCN1C(=O)CC(SC[C@H](NC(=O)[C@H](CC(N)=O)NC(=O)[C@H](Cc2c[nH]cn2)NC(=O)[C@H](CCCCN)NC(=O)[C@H](Cc2c[nH]c3ccccc23)NC(=O)[C@H](CC(=O)O)NC(=O)[C@H](CC(N)=O)NC(=O)[C@H](CCCCN)NC(=O)[C@H](CCCCN)NC(=O)CNC(=O)[C@H](CCCCN)NC(=O)[C@H](CCC(N)=O)NC(=O)[C@H](C)NC(=O)[C@H](CC(C)C)NC(=O)[C@H](CC(C)C)NC(=O)[C@H](Cc2c[nH]c3ccccc23)NC(=O)[C@H](CC(N)=O)NC(=O)[C@@H](NC(=O)[C@H](Cc2ccccc2)NC(=O)[C@H](CC(=O)O)NC(=O)[C@H](CCC(N)=O)NC(=O)[C@H](CCC(N)=O)NC(=O)[C@H](Cc2c[nH]cn2)NC(=O)[C@@H](NC(=O)[C@H](CCCCN)NC(=O)[C@H](CC(=O)O)NC(=O)[C@H](CCSC)NC(=O)[C@H](C)NC(=O)[C@@H](NC(=O)[C@H](CO)NC(=O)[C@H](Cc2ccc(O)cc2)NC(=O)[C@H](CC(=O)O)NC(=O)[C@H](CO)NC(=O)C2(NC(C)=O)CCCCC2)[C@@H](C)CC)[C@@H](C)CC)C(C)C)C(=O)N[C@H](C(=O)N[C@@H](CCC(N)=O)C(=O)O)[C@@H](C)O)C1=O` (some centres unmarked) [Example 2, [Ac-A6c^7, Cys(Psu)^40]hGIP(7-42)-OH] (Ac-[Ac6c]SDYSIAMDKIHQQDFVNWLLAQKGKKNDWKHNC(X1)TQ-OH), the figures for the half-life at 0.1 mg/mL in series [1] and in series [2] were 432 min and 822 min, respectively.
Regarding `CC[C@H](C)[C@H](NC(=O)[C@H](CO)NC(=O)[C@H](Cc1ccc(O)cc1)NC(=O)[C@H](CC(=O)O)NC(=O)[C@H](CO)NC(=O)C1(NC(C)=O)CCCCC1)C(=O)N[C@@H](C)C(=O)N[C@@H](CCSC)C(=O)N[C@@H](CC(=O)O)C(=O)N[C@@H](CCCCN)C(=O)N[C@H](C(=O)N[C@@H](Cc1c[nH]cn1)C(=O)N[C@@H](CCC(N)=O)C(=O)N[C@@H](CCC(N)=O)C(=O)N[C@@H](CC(=O)O)C(=O)N[C@@H](Cc1ccccc1)C(=O)N[C@H](C(=O)N[C@@H](CC(N)=O)C(=O)N[C@@H](Cc1c[nH]c2ccccc12)C(=O)N[C@@H](CC(C)C)C(=O)N[C@@H](CC(C)C)C(=O)N[C@@H](C)C(=O)N[C@@H](CCC(N)=O)C(=O)N[C@@H](CCCCN)C(=O)N[C@@H](Cc1ccc2ccccc2c1)C(=O)N[C@@H](CCCCN)C(=O)N[C@@H](CCCCN)C(=O)N[C@@H](CC(N)=O)C(=O)N[C@@H](CC(=O)O)C(=O)N[C@@H](Cc1c[nH]c2ccccc12)C(=O)N[C@@H](CCCCN)C(=O)N[C@@H](Cc1c[nH]cn1)C(=O)N[C@@H](CC(N)=O)C(=O)N[C@H](C(=O)N[C@H](C(=O)N[C@@H](CCC(N)=O)C(=O)O)[C@@H](C)O)[C@@H](C)CC)C(C)C)[C@@H](C)CC` [Example 24, (Ac-A6c^7, 2Nal^31)hGIP(7-42)-OH] (HELM PEPTIDE1{[ac].[O=C(C1(N[*:1])CCCCC1)[*:2]].S.D.Y.S.I.A.M.D.K.I.H.Q.Q.D.F.V.N.W.L.L.A.Q.K.[O=C([C@H](Cc1ccc2ccccc2c1)N[*:1])[*:2]].K.K.N.D.W.K.H.N.I.T.Q}$$$$V2.0), the results for the half-life at 0.1 mg/mL in series [1] and in series [2] were 732 min and 1580 min, respectively.
`CCCC[C@H](NC(=O)[C@H](C)NC(=O)[C@@H](NC(=O)[C@H](CO)NC(=O)[C@H](Cc1ccc(O)cc1)NC(=O)[C@H](CC(=O)O)NC(=O)[C@H](CO)NC(=O)[C@@H](NC(=O)[C@H](Cc1ccccc1)NC(=O)[C@@H](NC(=O)CNC(=O)[C@@H]1CCCN1C(=O)CCc1ccc(O)cc1)[C@@H](C)O)[C@@H](C)CC)[C@@H](C)CC)C(=O)N[C@@H](CC(=O)O)C(=O)N[C@@H](CCCCN)C(=O)N[C@H](C(=O)N[C@@H](Cc1c[nH]cn1)C(=O)N[C@@H](CCC(N)=O)C(=O)N[C@@H](CCC(N)=O)C(=O)N[C@@H](CC(=O)O)C(=O)N[C@@H](Cc1ccccc1)C(=O)N[C@H](C(=O)N[C@@H](CC(N)=O)C(=O)N[C@@H](Cc1c[nH]c2ccccc12)C(=O)N[C@@H](CC(C)C)C(=O)N[C@@H](CC(C)C)C(=O)N[C@@H](C)C(=O)N[C@@H](CCC(N)=O)C(=O)N[C@@H](CCCCN)C(=O)NCC(=O)N[C@@H](CCCCN)C(=O)N[C@@H](CCCCN)C(=O)N[C@@H](CC(N)=O)C(=O)N[C@@H](CC(=O)O)C(=O)N[C@@H](Cc1c[nH]c2ccccc12)C(=O)N[C@@H](CCCCN)C(=O)N[C@@H](Cc1c[nH]cn1)C(=O)N[C@@H](CC(N)=O)C(=O)N[C@H](C(=O)N[C@H](C(=O)N[C@@H](CCC(N)=O)C(=O)O)[C@@H](C)O)[C@@H](C)CC)C(C)C)[C@@H](C)CC` [Example 43, (4Hppa^2, Pro^3, Nle^14)hGIP(2-42)-OH]: the half-life at 0.1 mg/mL is 138 min in series [1] and more than 3180 min in series [2].
As to `CCCN1C(=O)CC(SC[C@H](NC(=O)[C@H](CCCCN)NC(=O)[C@H](CCC(N)=O)NC(=O)[C@H](C)NC(=O)[C@H](CC(C)C)NC(=O)[C@H](CC(C)C)NC(=O)[C@H](Cc2c[nH]c3ccccc23)NC(=O)[C@H](CC(N)=O)NC(=O)[C@@H](NC(=O)[C@H](Cc2ccccc2)NC(=O)[C@H](CC(=O)O)NC(=O)[C@H](CCC(N)=O)NC(=O)[C@H](CCC(N)=O)NC(=O)[C@H](Cc2c[nH]cn2)NC(=O)[C@@H](NC(=O)[C@H](CCCCN)NC(=O)[C@H](CC(=O)O)NC(=O)[C@H](CCSC)NC(=O)[C@H](C)NC(=O)[C@@H](NC(=O)[C@H](CO)NC(=O)[C@H](Cc2ccc(O)cc2)NC(=O)[C@H](CC(=O)O)NC(=O)[C@H](CO)NC(=O)C2(NC(C)=O)CCCCC2)[C@@H](C)CC)[C@@H](C)CC)C(C)C)C(=O)N[C@@H](CCCCN)C(=O)N[C@@H](CCCCN)C(=O)N[C@@H](CC(N)=O)C(N)=O)C1=O` (some centres unmarked) [Example 28, (Ac-A6c^7, Cys(Psu)^31]hGIP(7-34)-NH2], the half-life at 0.1 mg/mL was 246 min in series [1] and 528 min in series [2].
